Laboratory results: patent US7423181B2, “Aminoalkoxy-functional chalcones” (Lica Pharmaceuticals A/S, priority 2002, dated 2008)
pIC50: −log10 of the molar value. Values after ≈ are worked out from the molar mass of the structure shown. Like-named read-outs stand apart in the source and are kept apart here.

Assays:
L. major promastigotes = assay: Leishmania promastigote assay; conditions: L. major
[1] = test system: Staphylococcus aureus ATCC29213; assay: MIC determination in broth microdilution assay
[2] = test system: Staphylococcus aureus ATCC33591(resistant to methicillin); assay: MIC determination in broth microdilution assay
[3] = test system: Enterococcus faecalis ATCC29212; assay: MIC determination in broth microdilution assay
[4] = test system: Enterococcus faecium #17501 (vancomycin-resistant clinical isolate); assay: MIC determination in broth microdilution assay
[5] = test system: Streptococcus pneumoniae #998 (clinical isolate); assay: MIC determination in broth microdilution assay
[6] = test system: Eschericia coli ATCC25922; assay: MIC determination in broth microdilution assay; conditions: for MIC: G: Eschericia coli ATCC25922
Eschericia coli ESS = assay: MIC determination in broth microdilution assay
[7] = test system: Plasmodium falciparum 3D7; assay: Plasmodium falciparum assay; type: cell-based; conditions: Plasmodium falciparum 3D7 (Table 2); read-out: IC50
[8] = Determination of metabolic stability (liver microsomes); type: in vitro ADME; conditions: rat liver microsomes, 20 μM, 15 min
Description: Determination of Metabolic Stability
Incubations were performed with Wistar rat liver microsomes (0.25 mg/ml) in 2% sodium bicarbonate solution. NADP (0.13 mg/ml), glucose-6-phosphate (0.63 mg/ml) and glucose-6-phosphate dehydrogenase (0.38 units/ml) were used as NADPH generation system and UDPGA (0.48 mg/ml) was added to include the phase II reaction, glucuronic acid conjugation, in the assay. After 5 minutes of pre-incubation the reaction was started by addition of the test article to give a final concentration of 20 μM. Samples were incubated for 15 min at 37° C. and the reactions were terminated by addition of equal volumes of acetonitrile. Blank incubations were performed at the same concentration but without addition of microsomes. Both blank and microsome-containing samples were made in replicats of three. Prior to analysis samples were centrifuged for 10 min. at 3500 rpm,HPLC system:
Initial conditions were 40% mobile phase A (acetonitrile) and 60% mobile phase B (10 mM ammonium acetate pH 9.5). During the first 20 minutes, the mobile phase was changed via a linear gradient to 90% A and 10% B. This was followed by a 5 minutes linear gradient to initial conditions, which were maintained for 5 min. The flow rate was 0.20 m)/min and injection volume 10 μl.

[9] = test system: panel of 10 different non-fastidious bacteria; assay: Screening against panel of non-fastidious bacteria; conditions: Gram-positive pathogens
[10] = A: Staphylococcus aureus ATCC29213
[11] = B: Staphylococcus aureus ATCC33591(resistant to methicillin)
[12] = D: Enterococcus faecalis ATCC29212
[13] = E: Enterococcus faecium #17501 (vancomycin-resistant)
[14] = F: Streptococcus pneumoniae #998

| SMILES | MIC [1, 10] [µM] | MIC [2, 11] [µM] | MIC [3, 12] [µM] | MIC [4, 13] [µM] | MIC [5, 14] [µM] | MIC [6] [µM] | MIC (Eschericia coli ESS; H: Eschericia coli ESS) [µM] | other results |
| --- | --- | --- | --- | --- | --- | --- | --- | --- |
| COc1ccc(C(=O)/C=C/c2cc(-c3ccccc3)ccc2OCCN(C)C)c(F)c1 [Compound C011, (E)-3-[4-(2-Dimethylamino-ethoxy)-biphenyl-3-yl]-1-(2-fluoro-4-methoxy-phenyl)-propenone] | – | – | – | – | – | – | – | pIC50 (L. major promastigotes): 7.00 |
| Cc1cc(C)cc(-c2ccc(OCCN(C)C)c(/C=C/C(=O)c3ccc(OCCN(C)C)cc3F)c2)c1 [Compound C157, (E)-3-[4-(2-Dimethylamino-ethoxy)-3′,5′-dimethyl-biphenyl-3-yl]-1-[4-(2-dimethylamino-ethoxy)-2-fluoro-phenyl]-propenone] | 4.7 (≈ 2.37 µg/mL) | 9.4 (≈ 4.74 µg/mL) | 9.4 (≈ 4.74 µg/mL) | 9.4 (≈ 4.74 µg/mL) | 9.4 (≈ 4.74 µg/mL) | 18.8 (≈ 9.49 µg/mL) | 4.7 (≈ 2.37 µg/mL) | – |
| Cc1cc(C)cc(-c2ccc(OCCN(C)C)c(/C=C/C(=O)c3cccc(N4CCN(C)CC4)c3)c2)c1 [Compound C103, (E)-3-[4-(2-Dimethylamino-ethoxy)-3′,5′-dimethyl-biphenyl-3-yl]-1-[3-(4-methyl-piperazin-1-yl)-phenyl]-propenone] | 4.7 (≈ 2.34 µg/mL) | 4.7 (≈ 2.34 µg/mL) | 9.4 (≈ 4.68 µg/mL) | 9.4 (≈ 4.68 µg/mL) | – | 18.8 (≈ 9.36 µg/mL) | 4.7 (≈ 2.34 µg/mL) | activity against E coli ATCC25922 [6]: high activity; activity against ESS strain of E.coli (Eschericia coli ESS): high activity |
| Cc1cc(C)cc(-c2ccc(OCCN(C)C)c(/C=C/C(=O)c3cccc(O)c3)c2)c1 [Compound C085, (E)-3-[4-(2-Dimethylamino-ethoxy)-3′,5′-dimethyl-biphenyl-3-yl]-1-(3-hydroxy-phenyl)-propenone] | 4.7 (≈ 1.95 µg/mL) | 4.7 (≈ 1.95 µg/mL) | 4.7 (≈ 1.95 µg/mL) | 4.7 (≈ 1.95 µg/mL) | 75 (≈ 31.2 µg/mL) | – | 4.7 (≈ 1.95 µg/mL) | – |
| Cc1ccccc1-c1ccc(OCCN(C)C)c(/C=C/C(=O)c2ccccc2CN2CCN(C)CC2)c1 [Compound C032, (E)-3-[4-(2-Dimethylamino-ethoxy)-2′-methyl-biphenyl-3-yl]-1-[2-(4-methyl-piperazin-1-ylmethyl)-phenyl]-propenone] | – | – | – | – | – | – | – | pIC50 [7]: 6.30; pIC50 (L. major promastigotes): 6.15 |
| Cc1cc(C)cc(-c2ccc(OCCN(C)C)c(CCC(=O)c3ccc(F)cc3)c2)c1 [Compound C072, 3-[4-(2-Dimethylamino-ethoxy)-3′,5′-dimethyl-biphenyl-3-yl]-1-(4-fluoro-phenyl)-propan-1-one] | – | – | – | – | – | – | – | MIC ([1]; Staphylococcus aureus, ATCC29213): 9.4 µM (≈ 3.94 µg/mL); MIC ([2]; Staphylococcus aureus, ATCC33591): 18.8 µM (≈ 7.89 µg/mL); MIC ([3]; Enterococcus faecalis, ATCC29212): 18.8 µM (≈ 7.89 µg/mL); MIC ([4]; Enterococcus faecium): 18.8 µM (≈ 7.89 µg/mL); MIC ([5]; Streptococcus pneumoniae): 37.5 µM (≈ 15.7 µg/mL); MIC (Eschericia coli ESS): 9.4 µM (≈ 3.94 µg/mL) |
| Cc1cc(C)cc(-c2ccc(OCCN(C)C)c(/C=C/C(=O)c3ccc(O)c(F)c3)c2)c1 [Compound C140, (E)-3-[4-(2-Dimethylamino-ethoxy)-3′,5′-dimethyl-biphenyl-3-yl]-1-(3-fluoro-4-hydroxy-phenyl)-propenone] | – | – | – | – | – | – | – | pIC50 (L. major promastigotes): 6.70 |
| COc1ccc(C(=O)/C=C/c2cc(-c3cc(C)cc(C)c3)ccc2OCCN(C)C)cc1CN(C)C [Compound C090, (E)-3-[4-(2-Dimethylamino-ethoxy)-3′,5′-dimethyl-biphenyl-3-yl]-1-(3-dimethylaminomethyl-4-methoxy-phenyl)-propenone] | – | – | – | – | – | – | – | pIC50 [7]: 6.30 |
| CN(C)CCOc1ccc(-c2ccccc2O)cc1/C=C/C(=O)c1ccccc1CN(C)C [Compound C131, (E)-3-[4-(2-Dimethylamino-ethoxy)-2′-hydroxy-biphenyl-3-yl]-1-(2-dimethylaminomethyl-phenyl)-propenone] | – | – | – | – | – | – | – | pIC50 [7]: 6.52 |
| COc1ccc(C(=O)/C=C/c2cc(-c3cc(C)cc(C)c3)ccc2OCCN(C)C)c(CN(C)C)c1 [Compound C092, (E)-3-[4-(2-Dimethylamino-ethoxy)-3′,5′-dimethyl-biphenyl-3-yl]-1-(2-dimethylaminomethyl-4-methoxy-phenyl)-propenone] | 4.7 (≈ 2.29 µg/mL) | 9.4 (≈ 4.57 µg/mL) | 4.7 (≈ 2.29 µg/mL) | 4.7 (≈ 2.29 µg/mL) | 4.7 (≈ 2.29 µg/mL) | 75 (≈ 36.5 µg/mL) | 4.7 (≈ 2.29 µg/mL) | Metabolic turn-over in vitro [8]: 4% |
| CCCc1cc(/C=C/C(=O)c2ccc(OC)cc2F)c(OCCN(C)C)cc1O [Compound C039, (E)-3-[2-(2-Dimethylamino-ethoxy)-4-hydroxy-5-propyl-phenyl]-1-(2-fluoro-4-methoxy-phenyl)-propenone] | 9.4 (≈ 3.77 µg/mL) | 18.8 (≈ 7.55 µg/mL) | 18.8 (≈ 7.55 µg/mL) | 18.8 (≈ 7.55 µg/mL) | 18.8 (≈ 7.55 µg/mL) | 75.0 (≈ 30.1 µg/mL) | 9.4 (≈ 3.77 µg/mL) | – |
| Cc1cc(C)cc(-c2ccc(OCCN(C)C)c(/C=C/C(=O)c3cccc(CN(C)C)c3)c2)c1 [Compound C089, (E)-3-[4-(2-Dimethylamino-ethoxy)-3′,5′-dimethyl-biphenyl-3-yl]-1-(3-dimethylaminomethyl-phenyl)-propenone] | 9.4 (≈ 4.29 µg/mL) | 9.4 (≈ 4.29 µg/mL) | 9.4 (≈ 4.29 µg/mL) | 9.4 (≈ 4.29 µg/mL) | 9.7 (≈ 4.43 µg/mL) | 37.5 (≈ 17.1 µg/mL) | 4.7 (≈ 2.15 µg/mL) | Metabolic turn-over in vitro [8]: 9% |
| COc1ccc(C(=O)/C=C/c2cc(C(C)(C)C)ccc2OCCN(C)C)c(F)c1 [Compound C004, (E)-3-[5-tert-Butyl-2-(2-dimethylamino-ethoxy)-phenyl]-1-(2-fluoro-4-methoxy-phenyl)-propenone] | 9.4 (≈ 3.76 µg/mL) | 9.4 (≈ 3.76 µg/mL) | 18.8 (≈ 7.51 µg/mL) | 18.8 (≈ 7.51 µg/mL) | 18.8 (≈ 7.51 µg/mL) | 75.0 (≈ 30 µg/mL) | 9.4 (≈ 3.76 µg/mL) | potency against Gram-positive pathogens in comparison with Licochalcone A [9]: increased potency |
| CN(C)CCCOc1cccc(/C=C/C(=O)c2ccccc2CN(C)C)c1 [Compound C071, (E)-1-(2-Dimethylaminomethyl-phenyl)-3-[3-(3-dimethylamino-propoxy)-phenyl]-propenone] | – | – | – | – | – | – | – | Metabolic turn-over in vitro [8]: 3% |
| Cc1cc(C)cc(-c2ccc(OCCN(C)C)c(/C=C/C(=O)c3ccccc3OC(C)C)c2)c1 [Compound C067, (E)-3-[4-(2-Dimethylamino-ethoxy)-3′,5′-dimethyl-biphenyl-3-yl]-1(2-isopropoxy-phenyl)-propenone] | 4.7 (≈ 2.15 µg/mL) | 4.7 (≈ 2.15 µg/mL) | 4.7 (≈ 2.15 µg/mL) | 4.7 (≈ 2.15 µg/mL) | 18.8 (≈ 8.6 µg/mL) | – | 18.8 (≈ 8.6 µg/mL) | – |
| Cc1cc(C)cc(-c2ccc(OCCN(C)C)c(/C=C/C(=O)c3ccccc3N)c2)c1 [Compound C093, (E)-1-(2-Amino-phenyl)-3-[4-(2-dimethylamino-ethoxy)-3′,5′-dimethyl-biphenyl-3-yl]-propenone] | 4.7 (≈ 1.95 µg/mL) | 4.7 (≈ 1.95 µg/mL) | 9.4 (≈ 3.9 µg/mL) | 4.7 (≈ 1.95 µg/mL) | 18.8 (≈ 7.79 µg/mL) | – | 4.7 (≈ 1.95 µg/mL) | – |
| COc1ccc(C(=O)/C=C/c2cc(-c3cc(C)cc(C)c3)ccc2OCCN(C)C)c(F)c1 [Compound C024, (E)-3-[4-(2-Dimethylamino-ethoxy)-3′,5′-dimethyl-biphenyl-3-yl]-1-(2-fluoro-4-methoxy-phenyl)-propenone] | – | – | – | – | – | – | – | Metabolic turn-over in vitro [8]: 3%; pIC50 (L. major promastigotes): 7.40 |
| Cc1cc(C)cc(-c2ccc(OCCN(C)C)c(/C=C/C(=O)c3ccccc3OCCCN(C)C)c2)c1 [Compound C104, (E)-3-[4-(2-Dimethylamino-ethoxy)-3′,5′-dimethyl-biphenyl-3-yl]-1-[2-(3-dimethylamino-propoxy)-phenyl]-propenone] | 9.4 (≈ 4.71 µg/mL) | 18.8 (≈ 9.41 µg/mL) | 9.4 (≈ 4.71 µg/mL) | 9.4 (≈ 4.71 µg/mL) | 9.4 (≈ 4.71 µg/mL) | 18.8 (≈ 9.41 µg/mL) | 9.4 (≈ 4.71 µg/mL) | – |
| Cc1cc(C)cc(-c2ccc(OCCN(C)C)c(/C=C/C(=O)c3ccc(O)cc3F)c2)c1 [Compound C156, (E)-3-[4-(2-Dimethylamino-ethoxy)-3′,5′-dimethyl-biphenyl-3-yl]-1-(2-fluoro-4-hydroxy-phenyl)-propenone] | – | – | – | – | – | – | – | pIC50 [7]: 7.00 |
